ChEMBL document CHEMBL5331072, “Development of potent and selective FAAH inhibitors with improved drug-like properties as potential tools to treat neuroinflammatory conditions” (Eur J Med Chem, 2023)
Converted amounts (≈) assume the structure as drawn. The source made the active and inactive calls. No cut-off for these calls is given here.

Columns and labels:
[1] = molecular target: T1, Fatty-acid amide hydrolase 1 (Homo sapiens, UniProt O00519); assay: Inhibition of human recombinant FAAH using AMC-AA as substrate preincubated for 30 mins followed by substrate addition and measured after 30 mins by multimode plate reader analysis
T1 sequence (O00519 whole entry): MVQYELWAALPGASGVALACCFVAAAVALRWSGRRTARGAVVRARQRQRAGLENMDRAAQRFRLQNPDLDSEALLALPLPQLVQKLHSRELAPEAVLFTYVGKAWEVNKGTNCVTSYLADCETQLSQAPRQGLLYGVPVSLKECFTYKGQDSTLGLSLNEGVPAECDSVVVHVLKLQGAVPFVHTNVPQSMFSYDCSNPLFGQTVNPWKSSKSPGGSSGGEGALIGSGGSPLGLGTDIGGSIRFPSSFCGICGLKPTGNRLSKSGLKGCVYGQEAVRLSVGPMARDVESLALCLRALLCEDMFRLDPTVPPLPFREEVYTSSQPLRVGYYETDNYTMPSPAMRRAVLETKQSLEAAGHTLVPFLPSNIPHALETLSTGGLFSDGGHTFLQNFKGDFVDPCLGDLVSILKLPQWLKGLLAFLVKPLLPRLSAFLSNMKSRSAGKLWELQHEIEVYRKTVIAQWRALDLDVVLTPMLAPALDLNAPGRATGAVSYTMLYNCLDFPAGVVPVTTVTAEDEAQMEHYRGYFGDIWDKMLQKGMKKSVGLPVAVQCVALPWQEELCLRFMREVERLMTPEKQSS

[2] = molecular target: T2, Monoglyceride lipase (Homo sapiens, UniProt Q99685); assay: Inhibition of human recombinant MAGL using 7-hydroxycoumarinyl arachidonate as substrate preincubated for 30 mins followed by substrate addition and measured after 30 mins by multimode plate reader analysis
T2 sequence (Q99685 whole entry): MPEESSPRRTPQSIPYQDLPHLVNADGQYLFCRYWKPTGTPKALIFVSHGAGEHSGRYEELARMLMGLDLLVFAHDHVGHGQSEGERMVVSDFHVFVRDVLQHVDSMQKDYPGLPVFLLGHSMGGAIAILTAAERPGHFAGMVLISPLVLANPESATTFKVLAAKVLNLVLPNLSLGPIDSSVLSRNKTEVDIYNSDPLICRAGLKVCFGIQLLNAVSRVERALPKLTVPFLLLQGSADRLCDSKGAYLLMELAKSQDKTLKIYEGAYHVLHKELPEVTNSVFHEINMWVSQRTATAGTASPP

[3] = Chemical stability of the compound at pH 3 measured for 24 hrs by HPLC analysis; assay type: physicochemical; settings: buffer, read-out: Stability
[4] = Chemical stability of the compound at pH 7.4 measured for 24 hrs by HPLC analysis; assay type: physicochemical; settings: buffer, read-out: Stability
[5] = Solubility of compound at pH 3 measured for 24 hrs; assay type: physicochemical; settings: buffer
[6] = Solubility of compound at pH 7.4 measured for 24 hrs; assay type: physicochemical; settings: buffer
[7] = Cytotoxicity against mouse NIH3T3 cells assessed as inhibition of cell growth measured for 24 hrs by neutral red uptake assay; assay type: toxicity, cell-based
[8] = test system: 1321N1; assay: Cytotoxicity against human 1321N1 cells assessed as inhibition of cell growth at 10 nM measured for 24 hrs by MTT assay; assay type: functional; design: scale not given: the % may be the effect or the level left
[9] = test system: 1321N1; assay: Cytotoxicity against human 1321N1 cells assessed as inhibition of cell growth at 100 nM measured for 24 hrs by MTT assay; assay type: functional; design: scale not given: the % may be the effect or the level left
[10] = test system: 1321N1; assay: Cytotoxicity against human 1321N1 cells assessed as inhibition of cell growth at 1 uM measured for 24 hrs by MTT assay; assay type: functional; design: scale not given: the % may be the effect or the level left
[11] = test system: 1321N1; assay: Cytotoxicity against human 1321N1 cells assessed as inhibition of cell growth at 10 uM measured for 24 hrs by MTT assay; assay type: functional; design: scale not given: the % may be the effect or the level left
[12] = test system: 1321N1; assay: Cytotoxicity against human 1321N1 cells assessed as inhibition of cell growth at 30 uM measured for 24 hrs by MTT assay; assay type: functional; design: scale not given: the % may be the effect or the level left
[13] = Cardiotoxicity in Langendorff-perfused Wistar rat heart assessed as effect on heart rate at 0.3 uM by ECG analysis (reference value: 263.5+/-8.2 bpm); assay type: toxicity, tissue-based
[14] = Cardiotoxicity in Langendorff-perfused Wistar rat heart assessed as effect on heart rate at 1 uM by ECG analysis (reference value: 263.5+/-8.2 bpm); assay type: toxicity, tissue-based
[15] = Cardiotoxicity in Langendorff-perfused Wistar rat heart assessed as effect on heart rate at 10 uM by ECG analysis (reference value: 263.5+/-8.2 bpm); assay type: toxicity, tissue-based
[16] = Cardiotoxicity in Langendorff-perfused Wistar rat heart assessed as effect on heart rate at 30 uM by ECG analysis (reference value: 263.5+/-8.2 bpm); assay type: toxicity, tissue-based
[17] = Cardiotoxicity in Langendorff-perfused Wistar rat heart assessed as effect on RR time at 0.3 uM by ECG analysis (reference value: 230+/-8.7 milliseconds); assay type: toxicity, tissue-based
[18] = Cardiotoxicity in Langendorff-perfused Wistar rat heart assessed as effect on RR time at 1 uM by ECG analysis (reference value: 230+/-8.7 milliseconds); assay type: toxicity, tissue-based
[19] = Cardiotoxicity in Langendorff-perfused Wistar rat heart assessed as effect on RR time at 10 uM by ECG analysis (reference value: 230+/-8.7 milliseconds); assay type: toxicity, tissue-based
[20] = Cardiotoxicity in Langendorff-perfused Wistar rat heart assessed as effect on RR time at 30 uM by ECG analysis (reference value: 230+/-8.7 milliseconds); assay type: toxicity, tissue-based
[21] = Cardiotoxicity in Langendorff-perfused Wistar rat heart assessed as effect on PQ interval time at 0.3 uM by ECG analysis (Rvb =40.8+/-2.3 milliseconds); assay type: toxicity, tissue-based
[22] = Cardiotoxicity in Langendorff-perfused Wistar rat heart assessed as effect on PQ interval time at 1 uM by ECG analysis (Rvb =40.8+/-2.3 milliseconds); assay type: toxicity, tissue-based
[23] = Cardiotoxicity in Langendorff-perfused Wistar rat heart assessed as effect on PQ interval time at 10 uM by ECG analysis (Rvb =40.8+/-2.3 milliseconds); assay type: toxicity, tissue-based
[24] = Cardiotoxicity in Langendorff-perfused Wistar rat heart assessed as effect on PQ interval time at 30 uM by ECG analysis (Rvb =40.8+/-2.3 milliseconds); assay type: toxicity, tissue-based
[25] = Cardiotoxicity in Langendorff-perfused Wistar rat heart assessed as effect on QRS interval time at 0.3 uM by ECG analysis (Rvb =13.6+/-0.7 milliseconds); assay type: toxicity, tissue-based
[26] = Cardiotoxicity in Langendorff-perfused Wistar rat heart assessed as effect on QRS interval time at 1 uM by ECG analysis (Rvb =13.6+/-0.7 milliseconds); assay type: toxicity, tissue-based
[27] = Cardiotoxicity in Langendorff-perfused Wistar rat heart assessed as effect on QRS interval time at 10 uM by ECG analysis (Rvb =13.6+/-0.7 milliseconds); assay type: toxicity, tissue-based
[28] = Cardiotoxicity in Langendorff-perfused Wistar rat heart assessed as effect on QRS interval time at 30 uM by ECG analysis (Rvb =13.6+/-0.7 milliseconds); assay type: toxicity, tissue-based
[29] = Cardiotoxicity in Langendorff-perfused Wistar rat heart assessed as effect on QTc interval time at 0.3 uM by ECG analysis (Rvb =72.1+/-1.4 milliseconds); assay type: toxicity, tissue-based
[30] = Cardiotoxicity in Langendorff-perfused Wistar rat heart assessed as effect on QTc interval time at 1 uM by ECG analysis (Rvb =72.1+/-1.4 milliseconds); assay type: toxicity, tissue-based
[31] = Cardiotoxicity in Langendorff-perfused Wistar rat heart assessed as effect on QTc interval time at 10 uM by ECG analysis (Rvb =72.1+/-1.4 milliseconds); assay type: toxicity, tissue-based
[32] = Cardiotoxicity in Langendorff-perfused Wistar rat heart assessed as effect on QTc interval time at 30 uM by ECG analysis (Rvb =72.1+/-1.4 milliseconds); assay type: toxicity, tissue-based
[33] = test system: 1321N1; assay: Antiinflammatory activity against human 1321N1 cells assessed as reduction in TBHP-induced ROS production at 100 nM incubated for 24 hrs by CellROX green reagent based flow cytometry assay; assay type: functional, cell-based
[34] = test system: 1321N1; assay: Antiinflammatory activity against human 1321N1 cells assessed as reduction in TBHP-induced ROS production at 1 uM incubated for 24 hrs by CellROX green reagent based flow cytometry assay; assay type: functional, cell-based
[35] = Neurotoxicity against Wistar rat Hippocampus assessed as cell survival at 0.3 to 100 nM measured for 96 hrs by densitometric analysis; assay type: toxicity, tissue-based; settings: 0.1 µM, dose 0.3-100 nM
[36] = test system: Hippocampus; assay: Neuroprotective activity against Wistar rat Hippocampus assessed as reduction in LPS/IFN-gamma induced PI uptake in CA1 region at 3 to 1000 nM measured for 96 hrs; assay type: functional, tissue-based; settings: dose 3-1000 nM
[37] = test system: Hippocampus; assay: Neuroprotective activity against Wistar rat Hippocampus assessed as reduction in LPS/IFN-gamma induced PI uptake in CA1 region at 30 to 100 nM measured for 96 hrs; assay type: functional, tissue-based; settings: dose 30-100 nM

NC(=O)c1ccn(-c2cccc(OC(=O)N3CCN(CCCc4ccccc4)CC3)c2)c1
IC50 [1]: 0.0101 µM
IC50 [2]: > 10 µM
remaining at 24 h [3]: > 99%
remaining at 24 h [4]: > 99%
solubility at 24 h [5]: 228 µM (≈ 98.6 µg/mL)
solubility at 24 h [6]: 42 µM (≈ 18.2 µg/mL)
IC50 at 24 h [7]: 46 µM
Activity [8]: 100.5%
Activity [9]: 99.5%
Activity [10]: 100.3%
Activity [11]: 100%
Activity [12]: 101.5%
Activity [13]: 270 bpm
Activity [14]: 273 bpm
Activity [15]: 263.8 bpm
Activity [16]: 190.2 bpm
Time [17]: 223.8 ms
Time [18]: 220.2 ms
Time [19]: 229.8 ms
Time [20]: 286.4 ms
Time [21]: 39.2 ms
Time [22]: 40.6 ms
Time [23]: 41.2 ms
Time [24]: 54.8 ms
Time [25]: 13.8 ms
Time [26]: 13.8 ms
Time [27]: 14 ms
Time [28]: 14.6 ms
Time [29]: 70.6 ms
Time [30]: 70.6 ms
Time [31]: 71 ms
Time [32]: 73.5 ms
Activity [33]: Active
Activity [34]: Active
Activity [35]: Non-Toxic
Activity [36]: Active
Activity [37]: Active
